Experimental data: patent publication US6310273A, “Inhibiting apoptosis in plants using a baculovirus p35 protease inhibitor gene” (The Regents of the University of California, priority 1999, dated 2001)
Peptide text beside a SMILES is read from it.

Experiments:
[1] = molecular target: T1, caspase-3 (CPP32, apopain, Yama) (Homo sapiens, UniProt P42574); conditions: 0.1 uM inhibitor; 100 ul reaction, 30 units caspase-3, 0.2 mM DEVD-p-nitroanilide; cited from earlier work
T1 construct: purchased BIOMOL Research Laboratories, Inc. AK-700
T1 sequence (P42574 29-175 limits assumed): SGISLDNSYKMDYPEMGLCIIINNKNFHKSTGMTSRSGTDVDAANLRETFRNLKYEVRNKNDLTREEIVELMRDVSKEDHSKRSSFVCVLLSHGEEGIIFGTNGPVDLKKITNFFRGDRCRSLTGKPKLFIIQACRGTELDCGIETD
T1 sequence (P42574 176-277 limits assumed): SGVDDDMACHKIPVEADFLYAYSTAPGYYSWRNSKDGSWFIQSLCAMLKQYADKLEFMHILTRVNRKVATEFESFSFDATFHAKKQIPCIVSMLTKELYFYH

[2] = system: Pseudomonas syringae pv. tomato (avrPto) in tomato (Pto/Pto) leaves; experiment: Leaf infiltration of bacteria with peptide inhibitor, cell death; type: in vivo; conditions: incompatible interaction (host specific gene for gene hypersensitive response); inhibitor syringe-infiltrated with bacteria into leaf
[3] = system: Pseudomonas syringae pv. phaseolicola in tobacco leaves; experiment: as above; type: in vivo; conditions: incompatible interaction (non-host hypersensitive response); inhibitor syringe-infiltrated with bacteria into leaf
[4] = system: Pseudomonas syringae pv. angulata in tobacco leaves; experiment: as above; type: in vivo; conditions: compatible interaction; inhibitor syringe-infiltrated with bacteria into leaf
Description: (§1) A leaf of the susceptible plant of interest is syringe or vacuum infiltrated with a concentration of virulent bacteria sufficient to cause disease and tissue death. A portion of the same leaf or another leaf on the same plant of similar position and age is infiltrated with bacteria and the tetrapeptide inhibitor. Usually a 0.5 mM concentration of inhibitor is sufficient to inhibit disease but may vary according to pathogen and host plant. Disease is permitted to develop under conditions suitable for the plant/pathogen combination. Symptoms are viewed over the course of the experiment to assess the level of symptom (death) inhibition by the caspase inhibitor compared to the control. The affect of the caspase inhibitor on bacterial growth can be assayed by taking samples of the tissue and performing growth curves of the pathogen as described in the literature.
(§2) Host plant leaves are infiltrated with bacteria at a suitable concentration (10^4 -10^8 colony forming units per ml) to cause disease. Leaves of the same age and position on the same or a different plant are infiltrated with bacteria of the same concentration with the desired peptide inhibitor added. All solutions are infiltrated directly into the plant leaf lamina with a syringe. Disease symptoms in the form of dead areas of cells are quantified by time lapse color image capture and lesion area measurements determined by digital image analysis. Samples of the control tissue and inhibitor treated tissues are analyzed on a time course basis for bacterial growth rate.
(§3) Pathogen growth is measured by grinding leaf disc samples in a suitable buffer followed by serial dilutions and plating of samples onto agar plates to determine the relative number of colonies produced. Colony counts are then related back to the original undiluted samples. Growth values are reported as means of several samples with appropriate statistical measures of mean separation. Differential effects of the inhibitors thus are measured both in terms of the amount of apoptotic cell death induced (symptoms) and by the effect of altering cell death induction on the amount of pathogen growth in the tissue.

[5] = system: Pseudomonas syringae pv. phaseolicola in bean leaves; experiment: as above; type: in vivo; conditions: compatible interaction; inhibitor syringe-infiltrated with bacteria into leaf
Description: as §1, §2, §3

[6] = system: Pseudomonas syringae pv. tabaci in tobacco leaves; experiment: as above; type: in vivo; conditions: compatible interaction; inhibitor syringe-infiltrated with bacteria into leaf
Description: as §1, §2, §3

[7] = system: Xanthamonas campestris pv tomato in tomato leaves; experiment: as above; type: in vivo; conditions: compatible interaction; inhibitor syringe-infiltrated with bacteria into leaf
Description: as §1, §2, §3

[8] = system: Pseudomonas syringae pv. tomato in tomato leaves; experiment: as above; type: in vivo; conditions: compatible interaction; inhibitor syringe-infiltrated with bacteria into leaf
Description: as §1, §2, §3

[9] = system: Pseudomonas syringae pv. syringae in tomato leaves; experiment: as above; type: in vivo; conditions: compatible interaction; inhibitor syringe-infiltrated with bacteria into leaf
Description: as §1, §2, §3

bean = experiment: Blocking of apoptotic death or disease in bean; type: in vivo
tobacco = experiment: Blocking of apoptotic death or disease in tobacco; type: in vivo

Row | Molecule | blocking of cell death [2] | blocking of cell death [3] | blocking of cell death [6] | blocking of cell death [8] | also measured
1 | CC(=O)N[C@@H](CC(=O)O)C(=O)N[C@@H](CCC(=O)O)C(=O)N[C@H](C(=O)N[C@H](C=O)CC(=O)O)C(C)C [Ac-DEVD-CHO] | blocks cell death | blocks cell death | blocks cell death | blocks cell death | blocking of caspase-3 activity [1]: completely blocked; blocking of cell death [4]: blocks cell death; blocking of cell death [5]: blocks cell death; blocking of cell death [7]: blocks cell death; blocking of cell death [9]: blocks cell death
2 | CSCC[C@H](NC(=O)[C@H](CC(=O)O)NC(C)=O)C(=O)N[C@@H](CCC(N)=O)C(=O)N[C@H](C=O)CC(=O)O [Ac-DMQD-CHO] (Ac-DMQD-aldehyde) | – | blocks cell death | blocks cell death | blocks cell death | –
3 | CC(=O)N[C@@H](Cc1ccc(O)cc1)C(=O)N[C@H](C(=O)N[C@@H](C)C(=O)N[C@H](C=O)CC(=O)O)C(C)C [Ac-YVAD-CHO] | – | blocks cell death but less well than others | blocks cell death but less well than others | blocks cell death but less well than others | –
4 | CC(=O)N[C@@H](CC(C)C)C(=O)N[C@@H](CC(C)C)C(=O)N[C@H](C=O)CCCNC(=N)N [leupeptin] | – | – | – | – | blocking apoptotic death or disease (bean): not effective; blocking apoptotic death or disease (tobacco): not effective
5 | Ac-DQMD-aldehyde | blocks cell death | – | – | – | –
6 | Ac-Leu-Arg-Arg-aldehyde | – | – | does not block cell death | – | –
